Results: paper PMC7689250, “Synthetic Peptide Libraries Designed From a Minimal Alpha-Helical Domain of AS-48-Bacteriocin Homologs Exhibit Potent Antibacterial Activity” (Frontiers in Microbiology, 2020)
Like-named read-outs stand apart in the source and are kept apart here. Residues, ends and D or L forms follow the SMILES beside them.

Key:
[1] = test system: E. coli strain BL21; assay: Propidium iodide uptake by FACS; type: cell-based, Escherichia coli; details: 2, 4, 8, 16 or 32 μM peptide in saline, 1 h, ambient temperature, 1 × 10^4 events
Experimental: For determination of bacterial cell death via membrane disruption, bacterial cells were subjected to propidium iodide (PI) uptake and quantified using fluorescence-activated cell sorting (FACS). E. coli strain BL21 were first diluted to a OD 600 of 1.0. Cells were washed three times in 0.85% NaCl (saline) solution and resuspended in either 1.5 mL of either saline, 70% isopropyl alcohol, or peptide diluted to either 2, 4, 8, 16 or 32 μM in saline for 1 h at ambient temperature. Following incubation, cells were pelleted and resuspended in 1 mL of saline with 1.5 μL/mL propidium iodide and incubated in the dark for 15 min. The samples were washed again with saline three times and run through a Beckman Coulter FC500 flow cytometer. The FL3 detector, using the propidium iodine PE-Alexa Fluor 610 emission filter, was used to sort the cells. 1 × 10^4 events were collected for each sample run.

[2] = test system: S. pyogenes (M1); type: cell-based, Streptococcus pyogenes; details: for MBC: M1
Summary of the method: (§1)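 MIC in Mueller-Hinton broth with 1 × 10^6 CFU/mL bacteria, overnight cultures grown first in LB (E. coli, P. aeruginosa, S. aureus) or Todd-Hewitt (S. pyogenes); growth read as OD 600. Library members screened at half the parent peptide MIC; MBC as lowest concentration giving no colonies after plating MIC wells, 37°C overnight.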

[3] = test system: S. aureus (USA300); type: cell-based, Staphylococcus aureus; details: for MBC: USA300; for MIC: USA300, 16 h
Summary of the method: as §1

[4] = test system: GFP-expressing E. coli strain BL21; assay: Live imaging of GFP leakage; type: cell-based, Escherichia coli; details: 16 μM peptide, 8 h, 37°C, images every 10 min
Experimental: To observe bacterial cell death in the presence of peptide in real time, fluorescence microscopy was employed using GFP-expressing E. coli strain BL21. MIC assays were conducted against BL21-GFP to determine the peptide concentration used for microscopy experiments. The peptide was suspended in PBS and added to diluted bacterial cells. GFP-expressing E. coli in the presence of peptide were imaged on the Eclipse Ti-E inverted microscope (Nikon) using GFP and DIC channels for 8 h at 37°C, with images taken every 10 min ([Fields et al., 2020]). Syn-xiamencin-2, a peptide with no detectable antimicrobial activity below 128 μM was also evaluated as a negative peptide candidate control.

[5] = test system: E. coli (BL21); type: cell-based, Escherichia coli
Summary of the method: as §1

[6] = test system: P. aeruginosa (PAO1); type: cell-based, Pseudomonas aeruginosa; details: for MBC: PAO1; for MIC: PAO1, 16 h
Summary of the method: as §1

[7] = test system: sheep erythrocytes; type: cell-based; details: red cells of sheep, 1 h
Summary of the method: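 Washed defibrinated sheep blood, diluted 1:25 in PBS, incubated 1 h at 37 °C with peptide at the MIC-assay concentrations (sample:blood 1:10). Haemoglobin release read as supernatant absorbance at 450 nm; percent haemolysis normalised to PBS and 10% Triton controls.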

[8] = test system: human keratinocyte cell line (HaCaT); assay: HaCaT cytotoxicity, ethidium homodimer assay; type: cell-based; details: 16 h, 37°C, DMEM + 10% FBS, normalised to saponin, triplicate
Experimental: To assess cytotoxicity of optimized peptides in mammalian cells, an immortalized human keratinocyte cell line (HaCaT) was used. Cells were grown to 80% confluency in 24-well culture dishes and washed with PBS (Thermo Fisher). […] After incubation, the cells were washed with sterile PBS, followed by a covered incubation with 4 μM ethidium homodimer (Molecular Probes) for 30 min at room temperature. Fluorescence was measured using the Synergy H1 Microplate Reader set to 528 nm excitation, 617 nm emission, and a cutoff value of 590 nm. Saponin (0.1% wt/vol, Sigma) was added to each well followed by a covered incubation for 20 min at room temperature, followed by another measurement on the Synergy H1 Microplate Reader using the same settings to normalize readings to the number of cells per well and determine the percent cytotoxicity.

[9] = E. coli BL21, running text b43, unit printed nm

Compound | PI positive cells [1] | MBC [2] [µM] | MIC ([2]; S. pyogenes M1) [µM] | MIC ([2]; S. pyogenes M1, running text b43, unit printed nm) [µM] | MBC [3] [µM] | MIC [3] [µM] | GFP leakage / change in fluorescence [4] | MIC ([5]; BL21) [µM] | MIC ([5]; BL21, 16 h) [µM] | MBC [5, 9] | MIC [5, 9] | MBC [6] [µM] | MIC [6] [µM] | MIC ([2]; M1, 16 h) [µM] | MBC ([5]; BL21) [µM] | Percent Hemolysis [7] [%] | concentration at which peptide is cytotoxic [8] [µM]
CC(C)O [Isopropyl alcohol, isopropyl alcohol, reference compound] | large peak within the PI florescence range |  |  |  |  |  |  |  |  |  |  |  |  |  |  |  | 
CC[C@H](C)[C@H](NC(=O)[C@H](Cc1c[nH]c2ccccc12)NC(=O)[C@H](C)NC(=O)[C@H](CCCNC(=N)N)NC(=O)[C@H](CCCCN)NC(=O)CNC(=O)[C@H](CCCCN)NC(=O)[C@H](CCC(=O)O)NC(=O)[C@H](CCC(N)=O)NC(=O)[C@@H](NC(=O)[C@H](CCCCN)NC(=O)[C@H](CCCCN)NC(=O)[C@H](CCCCN)NC(=O)[C@H](CC(C)C)NC(=O)[C@H](CCCNC(=N)N)NC(=O)[C@H](CCC(N)=O)NC(=O)[C@H](Cc1ccccc1)NC(=O)[C@@H](NC(=O)[C@@H](NC(=O)[C@H](CCC(=O)O)NC(=O)[C@H](CCCCN)NC(=O)CNC(=O)[C@H](C)N)[C@@H](C)O)[C@@H](C)CC)[C@@H](C)CC)C(=O)N[C@@H](C)C(=O)N[C@@H](Cc1c[nH]c2ccccc12)C(=O)O [Syn-larvacin-27] (H-AGKETIFQRLKKKIQEKGKRAWIAW-OH; N-terminus and C-terminus assumed) | higher cell counts of PI-stained cells in a dose-dependent manner | 0.5 | 0.125 | 0.125 | 8 | 8 | significant decrease in fluorescence | 0.0156 | <0.0156 | below 15.6 nM | below 15.6 nM | 64 | 32 |  |  |  | 
CC[C@H](C)[C@H](NC(=O)[C@H](CCCCN)NC(=O)[C@H](CCCCN)NC(=O)[C@H](CCCCN)NC(=O)[C@H](CC(C)C)NC(=O)[C@H](CCCNC(=N)N)NC(=O)[C@H](CCC(N)=O)NC(=O)[C@H](Cc1ccccc1)NC(=O)[C@@H](NC(=O)[C@@H](NC(=O)[C@H](CCC(=O)O)NC(=O)[C@H](CCCCN)NC(=O)CNC(=O)[C@H](C)N)[C@@H](C)O)[C@@H](C)CC)C(=O)N[C@@H](CCC(N)=O)C(=O)N[C@@H](CCC(=O)O)C(=O)N[C@@H](CCCCN)C(=O)N[C@@H](Cc1c[nH]c2ccccc12)C(=O)N[C@@H](CCCCN)C(=O)N[C@@H](CCCNC(=N)N)C(=O)N[C@@H](C)C(=O)N[C@H](C(=O)N[C@H](C(=O)N[C@@H](C)C(=O)N[C@@H](Cc1c[nH]c2ccccc12)C(=O)O)[C@@H](C)CC)[C@@H](C)O [Syn-larvacin-43] (H-AGKETIFQRLKKKIQEKWKRATIAW-OH; N-terminus and C-terminus assumed) | higher cell counts of PI-stained cells in a dose-dependent manner | 4 |  |  | 4 | 4 | significant decrease in fluorescence |  | 1 |  |  | 16 | 16 | 4 | 1 | 19.9 | 
CC[C@H](C)[C@H](NC(=O)[C@H](CCCNC(=N)N)NC(=O)CNC(=O)[C@@H](NC(=O)[C@H](CCCCN)NC(=O)[C@H](CCCNC(=N)N)NC(=O)[C@@H](NC(=O)[C@H](Cc1ccc(O)cc1)NC(=O)[C@H](CCCNC(=N)N)NC(=O)[C@H](CCCNC(=N)N)NC(=O)[C@H](CC(C)C)NC(=O)[C@H](CCC(=O)O)NC(=O)[C@H](CCCCN)NC(=O)[C@H](C)NC(=O)[C@@H](NC(=O)[C@H](CCCNC(=N)N)NC(=O)[C@H](CC(N)=O)NC(=O)[C@@H](NC(=O)CNC(=O)[C@H](C)N)[C@@H](C)O)[C@@H](C)CC)[C@@H](C)CC)C(C)C)C(=O)N[C@@H](C)C(=O)N[C@@H](CCCNC(=N)N)C(=O)N[C@@H](CCCCN)C(=O)N[C@@H](CCCCN)C(=O)N[C@@H](Cc1c[nH]c2ccccc12)C(=O)O [Syn-sordellicin-88] (H-AGTNRIAKELRRYIRKVGRIARKKW-OH; N-terminus and C-terminus assumed) |  | 1 |  |  | 64 | 64 |  |  | 1 |  |  | 16 | 16 | 1 | 1 | 11.7 | ≥ 64
